These results are taken from a melting point compilation (Tetko et al.; mined from patent text by program, amines drawn as free bases though some values may be those of a salt).

The molecule `CCc1cc(OCc2ccc(-c3ccccc3-c3nnn(C(c4ccccc4)(c4ccccc4)c4ccccc4)n3)cc2)c2c(n1)CCN(C)C2` returned a melting point of 143 to 144 °C.

Molecule `Fc1ccc(Cn2cnc3ccccc32)cc1` displayed a melting point of 60 to 62 °C.

`COc1ccc(C=Cc2cc(OC)c(OC)c(OC)c2)c(O)c1O` showed a melting point of 114 to 115 °C.

Turning to `COc1cccc(C(=O)CS(C)=O)c1N` (centres undefined), the melting point was 106 to 108 °C.

`O=C(O)CCCN1C(=O)C(c2ccccc2)SC1=S` (centres undefined) yielded a melting point of 138 to 139 °C.

As for `CC(=O)CC(=O)Nc1ccc(-c2ncn(-c3ccc(OC(F)(F)F)cc3)n2)cc1`, the melting point was 159 to 164 °C.

`CN(CCO)c1ccnc(CO)c1Cl` showed a melting point of 49 to 53 °C.

Take `CCCCCNC(=O)Nc1ccc(N(C)C)cc1C(=O)NCC1CCN(C(c2ccccc2)c2ccccc2)CC1`: the melting point stood at 218 °C.

Consider `NC(=O)N(O)CCNC(=O)c1cccn1Cc1ccc(Cl)cc1`, for which the melting point lay in the range of 158 to 160 °C.

With `COCCNC(=O)c1ccc(C(=O)NS(=O)(=O)c2ccc(CCNC(=O)CCc3ccc(OC)c(OC)c3)cc2)cn1`, the melting point lay in the range of 87 to 89 °C.

For the molecule `NC(=O)CC(CC(N)=O)c1cccc(OCc2ccccc2)c1`, the melting point fell in the range of 205 to 207 °C.

`O=c1[nH]c(=O)n(CCCCBr)c2cc([N+](=O)[O-])ccc12` displayed a melting point of 202 to 203 °C.

Regarding `Cc1cc(Nc2ccccc2)nc(-n2nc(C)cc2C)n1`, the melting point lay within 134 to 139 °C.

With `CCC12CCC(=O)C=C1c1c(cc(O)c(Cl)c1Cl)C2` (centres undefined), the melting point was 260 to 265 °C.

For `CCn1c(=O)c(C)cc2cnc(Nc3ccc(N4CCN(C)CC4)cc3)nc21`, the melting point lay within 198 to 200 °C.

As for `COC(=O)c1cc(-c2c(Br)c(C(F)(F)F)n(C)c2Br)c(F)cc1Cl`, the melting point was 97 °C.

In turn, `NS(=O)(=O)c1ncccc1-c1ccccc1` yielded a melting point of 172 °C.

`COCC1=NC(NC(=O)Nc2cccc(C)c2)C(=O)N(CC(=O)N2CC3CCC(CC3)C2)c2c(C)cccc21` (centres undefined) displayed a melting point of 178 to 182 °C.

Take `COc1ccc(C(=O)Nc2ccccc2C(=O)c2ccccn2)cc1`: the melting point was in the range of 132 to 133 °C.

`NCC(=O)c1ncn(Cc2ccccc2)c1N` displayed a melting point of 156 to 162 °C.

`Cn1ccc(CNC(=O)c2ccnc(N3CCN(Cc4ccc(F)cc4)C3=O)c2)n1` showed a melting point of 79 to 81 °C.

The molecule `CCn1cc(C(=O)O)c(=O)c2cc(F)c(N3CCN(C)C(c4cc5cc(Cl)ccc5o4)C3)cc21` (centres undefined) gave a melting point of 248 to 249 °C.

`Cc1c(NC(=O)CC(CSC(=O)[C@@H](C)NC(=O)C2CCCCC2)c2ccccc2)cccc1C(=O)O` (some centres undefined) had a melting point of 175 to 180 °C.

As for `CCc1onc(-c2ccccc2)c1C(=O)NCCCN1CCN(c2ccccc2OCC(F)(F)F)CC1`, the melting point fell in the range of 102 to 104 °C.

The molecule `O=c1[nH]c(NCCCNc2ccccn2)ncc1Cc1ccc(Cl)cc1` gave a melting point of 168 to 171 °C.

On to `CC(C)(C)COCCOc1ccc(OCC(O)CNCCNC(=O)N2CCOCC2)cc1` (centres undefined), for which the melting point came out at 90 °C.

Molecule `Cc1ccc2c(Cl)cc(C(=O)NCc3ccc(Cl)cc3)c(O)c2n1` showed a melting point of 128 to 130 °C.

`CC(=O)OCc1ccc(OCC(OC(C)=O)c2cc3cc(C(C)C)ccc3o2)cc1` (centres undefined) yielded a melting point of 74 to 76 °C.

As to `CC(=O)Nc1c(-c2ccccc2)nn2ccccc12`, the melting point was 188 to 189 °C.

`COC(=O)[C@H](CC(C)C)NC(=O)CNC(=O)[C@H](Cc1ccc(O)cc1)NC(=O)[C@H](CO)NC(=O)OCc1ccccc1` gave a melting point of 166 to 167 °C.

As for `NCCn1cnc2c(N)nc3ccccc3c21`, the melting point is 265 °C.

Consider `Nc1sc2c(c1C(=O)c1ccc(-c3ccccc3)cc1)CCN(C(=O)OCc1ccccc1)C2`, for which the melting point was 83 to 85 °C.

In the case of `COc1cc(CCN2CCN(C)CC2)cc(OC)c1-c1ccc(C[C@H](NC(=O)c2c(Cl)cccc2Cl)C(=O)O)cc1`, the melting point came to 179 °C.

As for `CC(=O)C(C)Oc1cc(-n2c(=O)cc(C(F)(F)F)[nH]c2=O)c(F)cc1Br` (centres undefined), the melting point stood at 183 °C.

Consider `CSc1ccc(C=C2C=CC=C2)cc1`, for which the melting point is 105 to 106 °C.

In the case of `CCN1CCC(NC(=O)Nc2ccccc2CCc2cc(C(C)(C)C)c(O)c(C(C)(C)C)c2)CC1`, the melting point was in the range of 182 to 184 °C.

Molecule `COCOc1cc(COc2nn(Cc3ccccc3)cc2CO)ccc1OCc1nc(-c2ccco2)oc1C` yielded a melting point of 98 to 99 °C.

`O=C(c1c(F)cccc1F)N1CNCN(c2ccc(Cl)cc2)C1=O` yielded a melting point of 167 to 168 °C.

In turn, `CC(C)(C)C(O)C(Oc1ccccc1)n1ccnc1` (centres undefined) gave a melting point of 99 to 105 °C.

Take `COc1cccc(C=C2C(=O)NC(=O)N2C)c1`: the melting point fell in the range of 195 to 197 °C.

In turn, `C=CCN1C(=O)C2CCc3c(OC)c(OC)cc(C)c3C2C1=O` (centres undefined) had a melting point of 90 to 91 °C.

Take `O=[N+]([O-])c1ccc(NN=CCc2cccnc2)cc1`: the melting point lay in the range of 212 to 214 °C.

As to `O=C(CBr)c1ccc(Sc2ccccc2)cc1`, the melting point was found to be 46 °C.

Molecule `CCNC(=O)c1ccc(F)c2c1CC(N(CCCc1c[nH]c3ccc(F)cc13)C1CCC1)CO2` (centres undefined) came in with a melting point of 130 °C.

For the molecule `OCc1cncn1C1CCCCC1`, the melting point lay within 133 to 134 °C.

`O=C(c1cc2ccc(Br)cc2o1)C12CC3CC(CC(C3)C1)C2` came in with a melting point of 128 to 130 °C.

The molecule `CCC(=O)OCC12CCC(=O)C=C1CCC1C2CCC2(C)C(OC(=O)CC)CCC12` (centres undefined) displayed a melting point of 82 to 84 °C.

For the molecule `N[C@@]1(C(=O)O)C[C@H](Oc2ccc(Cl)cc2Cl)[C@H]2[C@H](C(=O)O)[C@H]21` (relative stereo), the melting point is more than 250 °C.

Regarding `CN1Cc2c(C#N)ncn2-c2cccc(F)c2C1=O`, the melting point is more than 250 °C.

For the molecule `CSc1nc2cccc3c2n1CC(N(C)C)C3` (centres undefined), the melting point was 84 to 86 °C.

The molecule `N#CCCNC(=O)c1cccc(-c2ccc3ccn(Cc4ccc(Cl)cc4Cl)c3c2)c1` had a melting point of 153 to 154 °C.

Molecule `O=c1[nH]c2scc(C3CCCCC3)c2[nH]c1=O` registered a melting point of more than 270 °C.

As to `CC(=O)c1cc(CN2CCNC2=O)ccc1O`, the melting point lay in the range of 131 to 133 °C.

The molecule `CC1(C)CC(=O)C1(Cl)CC(Br)(Br)Br` (centres undefined) showed a melting point of 95 to 97 °C.

With `O=C(NCCC(F)=C(F)F)C(=O)NCCC(F)=C(F)F`, the melting point was 139 to 141 °C.

`O=C(O)c1cc2cc(C3CCCCC3)ccc2nn1` came in with a melting point of 159 to 161 °C.

In the case of `CCOc1cc(-n2nc(C)c(Cl)c2C)c(F)cc1Cl`, the melting point lay within 106 to 108 °C.

Molecule `O=c1nc(-c2ccnc(OCc3ccccc3)c2)sc2ccccc12` returned a melting point of 116 °C.

`CCOC(=O)c1ncc2[nH]c3ccc(Cl)cc3c2c1C`: the melting point lay within 225 to 228 °C.

In turn, `O=C(c1ccc(Oc2cccc3ccccc23)cc1)C(O)O` displayed a melting point of 93 to 96 °C.

For the molecule `Nc1nc(Cl)cc(NC2C=CC(CO)C2)n1` (centres undefined), the melting point is 132 to 134 °C.

Consider `O=CNc1ccc([N+](=O)[O-])cc1`, for which the melting point was in the range of 195 to 199 °C.

`CCN1CCC=C(c2csc(N)n2)C1` returned a melting point of 116 to 120 °C.

`NC(=O)C1=NN(c2ccccc2)C(C(=O)O)=NN1c1ccccc1` registered a melting point of 241 to 242 °C.

As for `O=C(O)C1Cc2sccc2C(=O)N1Cc1ccccc1` (centres undefined), the melting point stood at 258 °C.

Molecule `C=C(C)[C@H]1CC[C@@](C)(O)[C@H](NC23CC4CC(CC(C4)C2)C3)C1` came in with a melting point of 94 to 96 °C.

With `CS(=O)(=O)NCCCCCCCCCCCn1c2c(c3ccccc3c1=O)C(=O)c1ccccc1-2`, the melting point was 136 to 137 °C.

Regarding `Ic1cc(I)c(OCCC(c2ccccc2)c2ccccc2)c(I)c1`, the melting point lay within 120 to 121 °C.

For `OC1(Cc2ccccc2F)CCN(Cc2ccccc2)C1` (centres undefined), the melting point fell in the range of 75 to 77 °C.

As to `N#Cc1c(N2CCN(C(=O)c3ccc4c(c3)OCO4)CC2)c2ccccc2n(Cc2ccc(F)cc2)c1=O`, the melting point was in the range of 140 to 160 °C.

The molecule `CN(CCCNC(=NCCCCOc1cccc(CN2CCCCC2)c1)NC#N)CCN(Cc1ccc(F)cc1)c1ccccn1` displayed a melting point of 102 to 105 °C.

As to `O=C(C=C(C(=O)O)c1csc(NC(=O)OCc2ccccc2)n1)OCc1ccccc1`, the melting point lay within 144 to 146 °C.

Molecule `O=CN1[C@@H](c2cccnc2)SC[C@H]1C(=O)O` registered a melting point of 250 °C.

`CN(CC(=O)O)C[C@H]1O[C@H](c2ccccc2Cl)c2cc(Cl)ccc2N(Cc2ccccc2)C1=O` (relative stereo) had a melting point of 195 to 197 °C.

Molecule `COC(=O)c1ccc(Cn2c(=O)c3cc(C(=O)NCc4ccc(OC)cc4)sc3n(C)c2=O)cc1C` displayed a melting point of 179 to 181 °C.

The molecule `CCCOc1cnc(CN)cc1O` displayed a melting point of 159 to 160 °C.

For `CON=C(C(=O)OC)c1ccccc1-c1nnc(-c2cccc(C)c2)o1`, the melting point was 166 to 167 °C.

In turn, `O=C(Nc1cc(Cl)cc(Cl)c1)c1cccc(Cl)c1O` displayed a melting point of 255 to 256 °C.

The molecule `Cc1cc(C(F)(F)F)ccc1NC(=O)c1c(C)cccc1NC(=O)C(C)C` had a melting point of more than 230 °C.

The molecule `O=C1CCN(c2c(F)cc([N+](=O)[O-])cc2F)CC1` returned a melting point of 130 to 132 °C.

As to `COC(=O)c1ccc(Cc2cccc3ccc(CC(C)C(=O)O)cc23)c(OC)c1` (centres undefined), the melting point lay in the range of 110 to 129 °C.

`O=C(O)c1ccc(Oc2nn(Cc3ccccc3)c3ccccc23)o1` came in with a melting point of 162 to 165 °C.

Molecule `Clc1cc2c(cc1Cn1ccnc1)OCO2` came in with a melting point of 99 to 102 °C.

Take `Cc1ccc(-c2ccc3c(c2)C=C(C(=O)Nc2ccc(CNc4ccccc4)cc2)CCO3)cc1`: the melting point is 157 to 158 °C.

As for `CCCCCCCCCCOc1cnc(-c2ccc(C#CCCCC(C)OC(C)=O)cc2)nc1` (centres undefined), the melting point lay within 57 to 58 °C.

`CC(=O)N[C@@H](CSC(=O)C(C)(C)C)C(=O)NCCSC(C)=O`: the melting point lay within 92 to 94 °C.

Turning to `Cc1cc(Sc2ccc([N+](=O)[O-])cc2)cc(Br)n1`, the melting point is 124 to 126 °C.

Turning to `CCn1c(C=O)c(-c2ccc(F)cc2)c(C(C)C)c1C(=O)O`, the melting point turned out to be 182 °C.

`Cc1nnc2ccc(-c3cccc(C(F)(F)F)c3)nn12` registered a melting point of 193 to 194 °C.
